Source: EP2963052A2, “PEPTIDES WITH CYTOPROTECTIVE ACTIVITY” (Zamerton Holdings Limited, priority 2013, dated 2016)
Residues, ends and D or L forms follow the SMILES beside them.

Key:
[1] = Stability of peptides in storage in solution (HPLC analysis); conditions: 0.05 M ammonium acetate buffer, approx. 1 mg/ml
Description: The peptides were dissolved in 0.05 M of an ammonium acetate buffer with pH 4.5 and pH 7.5 so that their concentrations achieved approximately 1 mg/ml. The solutions were sterilely filtered and kept in sterile, well-sealed vials. Upon expiration of the storage period the substances were analyzed with HPLC.

[2] = system: HeLa S3 cells; experiment: Protective effect of peptides on apoptosis and necrosis in the presence of camptothecin (Annexin-V FITC / PI flow cytofluorimetry); assay type: cell-based, human; conditions: HeLa cell culture, 24 hours
From the text: (§1) The experiments to study the effect of peptides on apoptosis and necrosis involved the use of reagents in the ApoTarget Annexin-V FITC Apoptosis Kit (Invitrogen, CIIIA). In addition to Annexin-V, marked by the FITC fluorescent stain, the ApoTarget Annexin-V FITC Apoptosis Kit contains propidium iodide (PI), a dye. PI can permeate only those cells whose cytoplasmic membrane is damaged, which is a characteristic sign of an advanced stage of apoptosis or necrosis. Having permeated cells with damaged cell membrane, PI binds itself to the DNA. The «red» fluorescence of resulting complexes is identified with a flow cytofluorimeter.
(§2) Therefore, the procedure of double staining (Annexin-V FITC plus PI) and the process of flow cytofluorimetry can be used to distinguish 3 cell populations and determine their percentage relationship: 1) non-apoptotic cells (Annexin-V-negative and PI-negative), 2) cells at an early stage of apoptosis (Annexin-V-positive and PI-negative), 3) necrotic cells or cells at an advanced stage of apoptosis (Annexin-V- positive and PI- positive). An increase in the percentage of apoptotic and necrotic cells can serve as a measure of how the compounds added to the culture medium act on these processes. Camptothecin (Camptothecin, Sigma, CIIIA), which is recommended by the manufacturer, was used as control in the experiments because of its pronounced ability to induce apoptosis and necrosis of cells, especially tumor ones.
(§3) Peptide solutions in sterile PBS with concentrations of 1 mg/ml were prepared immediately before the experiments to study the peptides' effect on apoptosis and necrosis. The same solutions that were stored in sterile test tubes at +4°C were used to study the proliferation activity. Working dilutions of peptides in the cell cultivation medium were prepared on the day of each experiment. A sterile plastic 96-well plate (Corning, USA) was used for this purpose. The dilutions were prepared so that the introduction of 25 µl of each working dilution in an experimental well with cultivated cells would result in final concentrations of peptides equal to 400, 200, 100 and 50 ng/ml.
(§4) The HeLa S3 and NIH 3T3 cells were cultivated with the use of reagents manufactured by Invitrogen (USA) and plastic vials, plates, pipettes and filters of Corning (USA). The cells were cultivated in DMEM, prepared with a dry concentrate dissolved in pyrogen-free distilled water (Millipore, USA). The medium contained 10 % FBS, 2 mM of glutamine and penicillin-streptomycin (diluted according to the vendor's recommendations). HeLa S3 and NIH 3T3 were grown in vials T150 at +37 °C in the atmosphere of 5.6 % CO2. The cells were constantly maintained in the logarithmic growth phase, to this end they were passed at least 2 times a week, with trypsin used to remove cells from the walls of the culture vials. Live cells were counted in a hemacytometer after staining the suspension aliquot with trypan blue.
(§5) The HeLa S3 and NIH 3T3 cells were removed from the surface of the culture vials and counted; the concentration was moved to 10^5 cell/ml, and the resulting suspensions were put in doses of 1 ml in the wells of a 24-well plate.
(§6) Having made sure on the following day that the cells adhered to the plate's surface, the culture medium was replaced with a fresh one in each well.
(§7) Camptothecin was added in the control wells (positive control - stimulation of apoptosis and necrosis) to the final concentration of 50 µM that had been determined in preliminary experiments with the NIH 3T3 and HeLa S3 cells. 25 µl of fresh culture medium were added in the control wells (negative control), 25 µl of working peptide dilutions were added in each experimental well (each working dilution - twice), as well as camptothecin in the same final concentration. Incubation was conducted at +37 °C. […]

[3] = system: NIH 3T3 cells; experiment: as above; assay type: cell-based, mice; conditions: NIH3T3 cell culture, 24 hours
From the text: as §1, §2, §3, §4, §5, §6, §7

[4] = target: T1, Annexin-V (Homo sapiens, UniProt P08758); conditions: calcium-dependent phospholipid binding; cited from earlier work
T1 sequence (P08758 1-320): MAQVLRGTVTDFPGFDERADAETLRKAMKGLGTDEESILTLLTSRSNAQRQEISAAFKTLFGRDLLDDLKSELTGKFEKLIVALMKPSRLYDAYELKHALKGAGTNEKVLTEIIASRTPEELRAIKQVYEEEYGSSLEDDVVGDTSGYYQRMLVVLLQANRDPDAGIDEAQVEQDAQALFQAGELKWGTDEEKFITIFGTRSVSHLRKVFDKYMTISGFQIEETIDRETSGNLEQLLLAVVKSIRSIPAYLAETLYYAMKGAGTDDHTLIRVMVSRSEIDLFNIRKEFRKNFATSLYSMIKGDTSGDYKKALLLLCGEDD

[5] = peptide 50 ng/ml + camptothecin 50 µM
[6] = peptide 100 ng/ml + camptothecin 50 µM
[7] = peptide 200 ng/ml + camptothecin 50 µM
[8] = peptide 400 ng/ml + camptothecin 50 µM

Compound	Peptide stability in storage ([1]; 1hour, pH 4.5, 22°C)	Peptide stability in storage ([1]; 1hour, pH 7.5, 22°C)	Peptide stability in storage ([1]; 10 days, pH 4.5, 22°C)	Peptide stability in storage ([1]; 10 days, pH 7.5, 22°C)	Apoptosis [2, 5]	Necrosis [2, 5]	Apoptosis [2, 6]	Necrosis [2, 6]	Apoptosis [2, 7]	Necrosis [2, 7]	Apoptosis [2, 8]	Necrosis [2, 8]	Apoptosis [3, 5]	Necrosis [3, 5]	Apoptosis [3, 6]	Necrosis [3, 6]	Apoptosis [3, 7]	Necrosis [3, 7]	Apoptosis [3, 8]	Necrosis [3, 8]	other results
C[C@H](N)C(=O)N[C@@H](CC(=O)O)C(=O)N[C@@H](CCC(=O)O)C(=O)N[C@@H](CCCNC(=N)N)C(=O)O [ADER, H-Ala-Asp-Glu-Arg-OH] (H-ADER-OH)	98.1	98.1	98.0	98.0	2%	5.2%	2.1%	4.1%	1.5%	4%	2.3%	4%	3%	4%	2.2%	3.1%	2.5%	3.5%	4.1%	5%	Peptide stability in storage ([1]; 30 days, pH 4.5, 22°C): 97.9; Peptide stability in storage ([1]; 30 days, pH 7.5, 22°C): 97.7; Peptide stability in storage ([1]; 60 days, pH 4.5, 22°C): 98.0; Peptide stability in storage ([1]; 60 days, pH 7.5, 22°C): 97.7; Peptide stability in storage ([1]; 90 days, pH 4.5, 22°C): 97.8; Peptide stability in storage ([1]; 90 days, pH 7.5, 22°C): 97.6
CC(=O)N[C@@H](CC(=O)O)C(=O)N[C@@H](CCC(=O)O)C(=O)O [AcDE, Ac-Asp-Glu-OH] (Ac-Asp-Glu-OH)	–	–	–	–	21%	13%	17%	11%	15%	8%	22%	7%	35%	50%	30%	46%	22%	34%	19%	28%	–
CCNC(=O)[C@H](CCC(=O)O)NC(=O)[C@@H](N)CC(=O)O [DENHEt, H-Asp-Glu-NH-CH2-CH3] (HELM PEPTIDE1{D.E.[CCN[*:1]]}$$$$V2.0)	98.1	98.2	98.3	98.2	15%	20%	9%	18%	8%	13%	8%	16%	25%	13%	23%	12%	21%	11%	18%	7%	Peptide stability in storage ([1]; 30 days, pH 4.5, 22°C): 98.15; Peptide stability in storage ([1]; 30 days, pH 7.5, 22°C): 98.10; Peptide stability in storage ([1]; 60 days, pH 4.5, 22°C): 98.0; Peptide stability in storage ([1]; 60 days, pH 7.5, 22°C): 98.0; Peptide stability in storage ([1]; 90 days, pH 4.5, 22°C): 97.9; Peptide stability in storage ([1]; 90 days, pH 7.5, 22°C): 97.85
phosphatidylcholine	–	–	–	–	–	–	–	–	–	–	–	–	–	–	–	–	–	–	–	–	Kd [4]: 0.5 nM

Now from value to compound, other results behind:

Peptide stability in storage ([1]; 1hour, pH 4.5, 22°C)	Peptide stability in storage ([1]; 1hour, pH 7.5, 22°C)	Peptide stability in storage ([1]; 10 days, pH 4.5, 22°C)	Peptide stability in storage ([1]; 10 days, pH 7.5, 22°C)	Compound	Apoptosis [2, 5]	Necrosis [2, 5]	Apoptosis [2, 6]	Necrosis [2, 6]	Apoptosis [2, 7]	Necrosis [2, 7]	Apoptosis [2, 8]	Necrosis [2, 8]	Apoptosis [3, 5]	Necrosis [3, 5]	Apoptosis [3, 6]	Necrosis [3, 6]	Apoptosis [3, 7]	Necrosis [3, 7]	Apoptosis [3, 8]	Necrosis [3, 8]	other results
98.0	98.0	98.1	98.0	COC(=O)[C@H](CCC(=O)O)NC(=O)[C@@H](N)CC(=O)O [DEOMe, H-Asp-Glu-OCH3] (HELM PEPTIDE1{D.E.[CO[*:1]]}$$$$V2.0)	4%	5%	2.1%	4.5%	2.3%	4.5%	2.5%	5.5%	4%	6%	2.5%	4%	3%	5%	3.3%	6%	Peptide stability in storage ([1]; 30 days, pH 4.5, 22°C): 97.7; Peptide stability in storage ([1]; 30 days, pH 7.5, 22°C): 97.65; Peptide stability in storage ([1]; 60 days, pH 4.5, 22°C): 97.55; Peptide stability in storage ([1]; 60 days, pH 7.5, 22°C): 97.5; Peptide stability in storage ([1]; 90 days, pH 4.5, 22°C): 97.5; Peptide stability in storage ([1]; 90 days, pH 7.5, 22°C): 97.2
96.5	96.5	96.4	96.4	H-Leu-Asp-Glu-OH [LDE]	1%	2.5%	1.4%	3.1%	0.5%	2.2%	1%	2.1%	2%	3.7%	2.5%	3.8%	1.6%	3.5%	2.5%	3.4%	Peptide stability in storage ([1]; 30 days, pH 4.5, 22°C): 96.4; Peptide stability in storage ([1]; 30 days, pH 7.5, 22°C): 96.4; Peptide stability in storage ([1]; 60 days, pH 4.5, 22°C): 96.2; Peptide stability in storage ([1]; 60 days, pH 7.5, 22°C): 96.2; Peptide stability in storage ([1]; 90 days, pH 4.5, 22°C): 96.2; Peptide stability in storage ([1]; 90 days, pH 7.5, 22°C): 95.6
98.1	98.1	98.0	97.7	H-Val-Asp-Glu-OH [VDE]	2.2%	3.1%	3.1%	3.6%	3.5%	4%	2%	2.4%	3.5%	5%	1.8%	2%	2.2%	3%	3%	4%	Peptide stability in storage ([1]; 30 days, pH 4.5, 22°C): 97.6; Peptide stability in storage ([1]; 30 days, pH 7.5, 22°C): 97.6; Peptide stability in storage ([1]; 60 days, pH 4.5, 22°C): 97.55; Peptide stability in storage ([1]; 60 days, pH 7.5, 22°C): 97.55; Peptide stability in storage ([1]; 90 days, pH 4.5, 22°C): 97.55; Peptide stability in storage ([1]; 90 days, pH 7.5, 22°C): 97.2
